Source: patent publication US5053070A, “Pyrimidine derivatives, preparation processes thereof, herbicide containing the same, and herbicidal compositions containing the same along with other active ingredient” (Mitsui Toatsu Chemicals, Incorporated, priority 1988, dated 1991)
Values belong to the compound of their own block, whether it stands above or below them.

What was measured:
barnyardgrass [1] = test: Treatment of soil under submerged condition, post-emergence (Test 5); assay type: in vivo; conditions: 30 g ai/a granule, post-emergence (barnyardgrass two-leaf stage), 30 days later
Protocol: (§1) 1/5000-are Wagner pots were filled with soil. Seeds or tubers of barnyardgrass, Monochoria vaginalis, bulrush, Sagittaria pygmaea, Cyperus serroylnus and Eleocharis kuroguwai were seeded or planted under submerged condition. Two pairs of rice seedlings (2-3 leaf stage), which had been reared in advance, were transplanted to each pot and were allowed to grow in a green house. Each pair consisted of two rice seedlings. When the barnyardgrass grew to two-leaf stage, each pot was treated with a granule which had been prepared by processing a predetermined amount of the test composition in accordance with a similar method to the method described in Formulation Example 9. The state of emergence of weeds and the state of injury of rice were observed 30 days later.
(§2) In the table, the degrees of damages of the test plants and the degrees of injury of the rice are shown in a similar manner to Example 2.

bulrush [2] = test: as above; assay type: in vivo; conditions: 30 g ai/a granule, 30 days later
Protocol: as §1, §2

Sagittaria pygmaea [3] = test: as above; assay type: in vivo; conditions: 30 g ai/a granule, 30 days later
Protocol: as §1, §2

peanut = test: Upland soil application test (Test 2), crop injury; assay type: in vivo; conditions: 30 g ai/a, soil spray before emergence, 30 days later
Protocol: (§3) Resin-made 1/2500-are pots were filled with the soil of an upland field. After they were fertilized, soybean, peanut and cotton were seeded and 2-3 cm soil covering was applied. Seeds of redroot pigweed, common lambsquarters, barnyardgrass, green foxtail, large crabgrass, foxtail meadow and johnsongrass had been uniformly mixed with the soil. They were allowed to germinate in a green house. One day later (before emergence of weeds), a wettable powder prepared from a predetermined amount of each test compound in a similar manner to the method described in Formulation Example 1 was diluted with water and then sprayed evenly at an application rate equal to 10 l per are onto the surface of the soil by means of a pressure-operated ULV (ultra low volume) sprayer. Influence to the crops and weeds were observed 30 days later. The results are shown in Table 3, in which the degree of damages of each test plant and the degree of injury to each crop were determined by comparing the air-dried weights of the test plant and crop with those of the corresponding plant and crop in untreated pots and are shown in accordance with the following standard: […]

soybean = test: Upland soil application test (Test 2), crop injury; assay type: in vivo; conditions: 30 g ai/a, soil spray before emergence, 30 days later
Protocol: as §3

cotton = test: Upland soil application test (Test 2), crop injury; assay type: in vivo; conditions: 30 g ai/a, soil spray before emergence, 30 days later
Protocol: as §3

barnyardgrass [4] = test: Upland soil application test (Test 2); assay type: in vivo; conditions: 30 g ai/a, soil spray before emergence, 30 days later
Protocol: as §3

large crabgrass = test: Upland soil application test (Test 2); assay type: in vivo; conditions: 30 g ai/a, soil spray before emergence, 30 days later
Protocol: as §3

redroot pigweed = test: Upland soil application test (Test 2); assay type: in vivo; conditions: 30 g ai/a, soil spray before emergence, 30 days later
Protocol: as §3

common lambsquarters = test: Upland soil application test (Test 2); assay type: in vivo; conditions: 30 g ai/a, soil spray before emergence, 30 days later
Protocol: as §3

johnsongrass = test: Upland soil application test (Test 2); assay type: in vivo; conditions: 30 g ai/a, soil spray before emergence, 30 days later
Protocol: as §3

green foxtail = test: Upland soil application test (Test 2); assay type: in vivo; conditions: 30 g ai/a, soil spray before emergence, 30 days later
Protocol: as §3

foxtail meadow = test: Upland soil application test (Test 2); assay type: in vivo; conditions: 30 g ai/a, soil spray before emergence, 30 days later
Protocol: as §3

barnyardgrass [5] = test: Treatment of soil under submerged condition, pre-emergence (Test 4); assay type: in vivo; conditions: 30 g ai/a granule, 30 days later
Protocol: as §1, with “seroylnus” for “serroylnus”, “germinate” for “grow”, “One day later (before emergence of weeds),” for “When the barnyardgrass grew to two-leaf stage,”
(§4) In the table, the degrees of damages of the test plants and the degrees of injury of rice are shown in a similar manner to Example 2.

bulrush [6] = test: as above; assay type: in vivo; conditions: 30 g ai/a granule, 30 days later
Protocol: as §1, with “seroylnus” for “serroylnus”, “germinate” for “grow”, “One day later (before emergence of weeds),” for “When the barnyardgrass grew to two-leaf stage,”
as §4

Sagittaria pygmaea [7] = test: as above; assay type: in vivo; conditions: 30 g ai/a granule, 30 days later
Protocol: as §1, with “seroylnus” for “serroylnus”, “germinate” for “grow”, “One day later (before emergence of weeds),” for “When the barnyardgrass grew to two-leaf stage,”
as §4

[8] = test system: ALS (acetolactate syntase); test: ALS enzyme assay (Test 1); assay type: biochemical, barnyardgrass; conditions: 1,000 ppm (0.5 mg/0.5 ml)
Protocol: To determine the selectivity in enzyme level between crops and weeds, and ALS enzyme assay was conducted using pea as a representative of broadleaf crops and barnyardgrass as a representative of narrowleaf weeds.
After seeds of pea and barnyardgrass were allowed to germinate at 25° C. for 8-14 days in a dark place, partially-purified suspensions (Suspensions A) of acetolactate syntase were separately obtained from seedlings in accordance with the method described in the literature, Plant Physiology, 75, 827-831.
In a test tube, 0.5 mg of one of test compounds was weighed, followed by the addition of 0.15 ml of a 20 mM K2 HPO4 solution and 0.25 ml of a reaction substrate medium which consisted of 40 mM of K2 HPO4, 40 mM of sodium pyruvate, 1 mM of TPP, 1 mM of MgCl2 and 20 μM of FAD so that 0.4 ml of a reaction solution (Solution B) was prepared. Added to 0.4 ml of Solution B was 0.1 ml of suspension A. After the resultant mixture was shaken for 1 hour in a thermostat water bath controlled at 30° C., 50 μl of 6N sulfuric acid were added to terminate the reaction.
Next, the reaction-terminated liquid mixture was transferred into a thermostat water bath controlled at 60° C. and was heated for 15 minutes. Thereafter, 0.5 ml of a 0.5% creatine solution and 0.5 ml of a 5% alkaline α-naphthol solution were added, and the resultant mixture was maintained at 60° C. for 15 minutes. As a result, the test solution developed a pink-red color. After the above operation, the absorbance of the test solution at 525 nm was measured by a spectrophotometer (Absorbance 1 of Test Compound).
On the other hand, the absorbance (Absorbance 2 of Blank) of a solution obtained by subjecting a portion of Solution B, said portion being free of the test compound, to the above operation and the absorbance (Absorbance 3 of sulfuric acid terminated) of another solution obtained by subjecting another portion of Solution B, said portion containing 50 μl of 6N sulfuric acid as a test compound, were measured at the same time. Based on the values of the respective measurements, the enzyme assay at 1,000 ppm (0.5 mg/0.5 ml) of each compound was determined. [formula]

Inhibitory activity (%) Barnyardgrass [8]: 91%
SMILES: COc1cc(OC)nc(Oc2ccccc2C=NOCC=Cc2cccc(C)c2)n1 [Compound No. 34, 0-(3-methylcinnamyl)-2-(4,6-dimethoxy-2-pyrimidinyloxy)benzaldoxime]
Herbicidal effects Barnyardgrass (barnyardgrass [1]): 5 (0-5 (Death))
Herbicidal effects Bulrush (bulrush [2]): 4 (6-10 (Severe damages))
Herbicidal effects Sagittaria Pygmaea (Sagittaria pygmaea [3]): 3 (11-40 (Medium damages))
Injury Peanut (peanut): 0 (91-100 (No damages))
Injury Soybean (soybean): 0 (91-100 (No damages))
Injury Cotton (cotton): 0 (91-100 (No damages))
Herbicidal effects Barnyardgrass (barnyardgrass [4]): 5 (0-5 (Death))
Herbicidal effects Large crabgrass (large crabgrass): 4 (6-10 (Severe damages))
Herbicidal effects Redroot pigweed (redroot pigweed): 4 (6-10 (Severe damages))
Herbicidal effects Common lambsquarters (common lambsquarters): 4 (6-10 (Severe damages))
Herbicidal effects Johnsongrass (johnsongrass): 5 (0-5 (Death))
Herbicidal effects Green foxtail (green foxtail): 5 (0-5 (Death))
Herbicidal effects Foxtail meadow (foxtail meadow): 5 (0-5 (Death))
Herbicidal effects Barnyardgrass (barnyardgrass [5]): 4 (6-10 (Severe damages))
Herbicidal effects Bulrush (bulrush [6]): 4 (6-10 (Severe damages))
Herbicidal effects Sagittaria Pygmaea (Sagittaria pygmaea [7]): 5 (0-5 (Death))

Inhibitory activity (%) Barnyardgrass [8]: 41%
SMILES: CC=CCON=Cc1ccccc1Oc1nc(OC)cc(OC)n1 [compound 8]
Herbicidal effects Barnyardgrass (barnyardgrass [1]): 5 (0-5 (Death))
Herbicidal effects Bulrush (bulrush [2]): 5 (0-5 (Death))
Herbicidal effects Sagittaria Pygmaea (Sagittaria pygmaea [3]): 5 (0-5 (Death))
Injury Peanut (peanut): 0 (91-100 (No damages))
Injury Soybean (soybean): 0 (91-100 (No damages))
Injury Cotton (cotton): 0 (91-100 (No damages))
Herbicidal effects Barnyardgrass (barnyardgrass [4]): 4 (6-10 (Severe damages))
Herbicidal effects Large crabgrass (large crabgrass): 4 (6-10 (Severe damages))
Herbicidal effects Redroot pigweed (redroot pigweed): 5 (0-5 (Death))
Herbicidal effects Common lambsquarters (common lambsquarters): 4 (6-10 (Severe damages))
Herbicidal effects Johnsongrass (johnsongrass): 5 (0-5 (Death))
Herbicidal effects Green foxtail (green foxtail): 5 (0-5 (Death))
Herbicidal effects Foxtail meadow (foxtail meadow): 5 (0-5 (Death))
Herbicidal effects Barnyardgrass (barnyardgrass [5]): 4 (6-10 (Severe damages))
Herbicidal effects Bulrush (bulrush [6]): 4 (6-10 (Severe damages))
Herbicidal effects Sagittaria Pygmaea (Sagittaria pygmaea [7]): 4 (6-10 (Severe damages))

Further lines, the compound ahead of its results:

SMILES: CCc1ccc(C=CCON=Cc2ccccc2Oc2nc(OC)cc(OC)n2)cc1 [compound 37]
Herbicidal effects Barnyardgrass (barnyardgrass [1]): 5 (0-5 (Death))
Herbicidal effects Bulrush (bulrush [2]): 5 (0-5 (Death))
Herbicidal effects Sagittaria Pygmaea (Sagittaria pygmaea [3]): 4 (6-10 (Severe damages))
Injury Peanut (peanut): 0 (91-100 (No damages))
Injury Soybean (soybean): 0 (91-100 (No damages))
Injury Cotton (cotton): 0 (91-100 (No damages))
Herbicidal effects Barnyardgrass (barnyardgrass [4]): 4 (6-10 (Severe damages))
Herbicidal effects Large crabgrass (large crabgrass): 5 (0-5 (Death))
Herbicidal effects Redroot pigweed (redroot pigweed): 4 (6-10 (Severe damages))
Herbicidal effects Common lambsquarters (common lambsquarters): 4 (6-10 (Severe damages))
Herbicidal effects Johnsongrass (johnsongrass): 5 (0-5 (Death))
Herbicidal effects Green foxtail (green foxtail): 5 (0-5 (Death))
Herbicidal effects Foxtail meadow (foxtail meadow): 5 (0-5 (Death))
Herbicidal effects Barnyardgrass (barnyardgrass [5]): 4 (6-10 (Severe damages))
Herbicidal effects Bulrush (bulrush [6]): 4 (6-10 (Severe damages))
Herbicidal effects Sagittaria Pygmaea (Sagittaria pygmaea [7]): 4 (6-10 (Severe damages))
Inhibitory activity (%) Barnyardgrass [8]: 93%

SMILES: COc1cc(OC)nc(Oc2ccccc2C=NOCC#Cc2ccccc2)n1 [compound 42]
Herbicidal effects Barnyardgrass (barnyardgrass [1]): 5 (0-5 (Death))
Herbicidal effects Bulrush (bulrush [2]): 4 (6-10 (Severe damages))
Herbicidal effects Sagittaria Pygmaea (Sagittaria pygmaea [3]): 5 (0-5 (Death))
Injury Peanut (peanut): 0 (91-100 (No damages))
Injury Soybean (soybean): 0 (91-100 (No damages))
Injury Cotton (cotton): 0 (91-100 (No damages))
Herbicidal effects Barnyardgrass (barnyardgrass [4]): 5 (0-5 (Death))
Herbicidal effects Large crabgrass (large crabgrass): 4 (6-10 (Severe damages))
Herbicidal effects Redroot pigweed (redroot pigweed): 3 (11-40 (Medium damages))
Herbicidal effects Common lambsquarters (common lambsquarters): 4 (6-10 (Severe damages))
Herbicidal effects Johnsongrass (johnsongrass): 5 (0-5 (Death))
Herbicidal effects Green foxtail (green foxtail): 5 (0-5 (Death))
Herbicidal effects Foxtail meadow (foxtail meadow): 5 (0-5 (Death))
Herbicidal effects Barnyardgrass (barnyardgrass [5]): 5 (0-5 (Death))
Herbicidal effects Bulrush (bulrush [6]): 4 (6-10 (Severe damages))
Herbicidal effects Sagittaria Pygmaea (Sagittaria pygmaea [7]): 5 (0-5 (Death))
Inhibitory activity (%) Barnyardgrass [8]: 93%

SMILES: COc1cc(OC)nc(Oc2ccccc2C=NOCCc2ccccc2)n1 [compound 23]
Herbicidal effects Barnyardgrass (barnyardgrass [1]): 5 (0-5 (Death))
Herbicidal effects Bulrush (bulrush [2]): 4 (6-10 (Severe damages))
Herbicidal effects Sagittaria Pygmaea (Sagittaria pygmaea [3]): 5 (0-5 (Death))
Injury Peanut (peanut): 0 (91-100 (No damages))
Injury Soybean (soybean): 0 (91-100 (No damages))
Injury Cotton (cotton): 0 (91-100 (No damages))
Herbicidal effects Barnyardgrass (barnyardgrass [4]): 3 (11-40 (Medium damages))
Herbicidal effects Large crabgrass (large crabgrass): 3 (11-40 (Medium damages))
Herbicidal effects Redroot pigweed (redroot pigweed): 3 (11-40 (Medium damages))
Herbicidal effects Common lambsquarters (common lambsquarters): 4 (6-10 (Severe damages))
Herbicidal effects Johnsongrass (johnsongrass): 4 (6-10 (Severe damages))
Herbicidal effects Green foxtail (green foxtail): 3 (11-40 (Medium damages))
Herbicidal effects Foxtail meadow (foxtail meadow): 3 (11-40 (Medium damages))
Herbicidal effects Barnyardgrass (barnyardgrass [5]): 5 (0-5 (Death))
Herbicidal effects Bulrush (bulrush [6]): 4 (6-10 (Severe damages))
Herbicidal effects Sagittaria Pygmaea (Sagittaria pygmaea [7]): 5 (0-5 (Death))
Inhibitory activity (%) Barnyardgrass [8]: 35%

SMILES: COc1cc(OC)nc(Oc2ccccc2C=NOCC=Cc2ccc(F)cc2)n1 [compound 29]
Herbicidal effects Barnyardgrass (barnyardgrass [1]): 5 (0-5 (Death))
Herbicidal effects Bulrush (bulrush [2]): 4 (6-10 (Severe damages))
Herbicidal effects Sagittaria Pygmaea (Sagittaria pygmaea [3]): 4 (6-10 (Severe damages))
Injury Peanut (peanut): 0 (91-100 (No damages))
Injury Soybean (soybean): 0 (91-100 (No damages))
Injury Cotton (cotton): 0 (91-100 (No damages))
Herbicidal effects Barnyardgrass (barnyardgrass [4]): 5 (0-5 (Death))
Herbicidal effects Large crabgrass (large crabgrass): 5 (0-5 (Death))
Herbicidal effects Redroot pigweed (redroot pigweed): 5 (0-5 (Death))
Herbicidal effects Common lambsquarters (common lambsquarters): 4 (6-10 (Severe damages))
Herbicidal effects Johnsongrass (johnsongrass): 5 (0-5 (Death))
Herbicidal effects Green foxtail (green foxtail): 4 (6-10 (Severe damages))
Herbicidal effects Foxtail meadow (foxtail meadow): 4 (6-10 (Severe damages))
Herbicidal effects Barnyardgrass (barnyardgrass [5]): 3 (11-40 (Medium damages))
Herbicidal effects Bulrush (bulrush [6]): 3 (11-40 (Medium damages))
Herbicidal effects Sagittaria Pygmaea (Sagittaria pygmaea [7]): 3 (11-40 (Medium damages))
Inhibitory activity (%) Barnyardgrass [8]: 98%
